This passage reports Km and IC50 results from article doi:10.1101/2025.11.20.689647v1, “Alcohols inhibit glucose transporters noncompetitively at a constant membrane concentration according to lipid theory” (biorxiv, 2025).

One may read the Km as the substrate concentration at which the rate is half of its maximum. For orientation: IC50 means the point on the concentration scale where inhibition reaches its midpoint. Lower therefore signals higher potency.

In assay [1] the test system is T1, Hxt2.
T1 construct: full-length HXT2 expressed from ADH1 promoter on multicopy plasmid Hxt2mnx-pVT (pVT102-U) in S. cerevisiae EBY.S7 (all 18 hexose transporter genes deleted; HXT2m strain)
Briefly: initial 2DG uptake ([…] s, zero-trans), bioluminescent 2DG6P assay in HXT2m cells. The assay is classed as cell-based, Saccharomyces cerevisiae. The note with it: no alcohol, 0–4 mM 2DG, pH 7.4, 25 °C, zero-trans influx.

Assay [2] has as its system T1, Hxt2. The description is as above. The assay is classed as cell-based, Saccharomyces cerevisiae. The note with it: 1 mM 2DG, pH 7.4, 25 °C, 30 min preincubation, authors: nonspecific action via membrane lipid, not specific binding.

Consider `OC[C@H]1OC(O)C[C@@H](O)[C@@H]1O` (stereo partly drawn) [2DG, 2-deoxyglucose], for which, in the assay with Hxt2 [1], the Km is 800 to 900 µM.

In turn, `CCCCCCO` [C6, 1-hexanol] yielded an IC50 in the assay on Hxt2 [2] (noncompetitive) of 15.2 mM.

For `CCCCCCCCO` [C8, 1-octanol], in the assay on Hxt2 [2], the IC50 amounted to 3.6 mM.
